Source: patent US7943628B2, “Pyrimidine derivatives” (Pfizer Limited, priority 2005, dated 2011)

How the values were obtained:
histamine H4 receptor [1] = biological target: T1, histamine H4 receptor (Homo sapiens, UniProt Q9H3N8); experiment: H4 binding, method 2 ([3H]-histamine binding with Ysi WGA beads on CHO cell membranes); settings: H4 binding, method 2, Ki calculated from IC50 (Cheng-Prussoff)
T1 construct: expressed in transfected cells; host or cells: CHO cells
Description: Cell pellets from CHO cells expressing the histamine H4 receptor were homogenised in ice-cold 50 mM Tris-HCl/0.5 mM CaCl2 buffer containing a protease inhibitor cocktail (Roche®, United Kingdom) using a ground glass homogeniser. Homogenates were centrifuged at 48000 g for 30 min at 4° C. The membrane pellet was resuspended in fresh buffer and the centrifugation step was repeated as described above. The membrane pellet was resuspended in 50 mM Tris-HCl in the same volume as the original cell pellet. Aliquots of membrane preparations were stored at −80° C. and were used for [^3H]-Histamine binding experiments.
Cell membranes (15 μg/well) were pre-incubated for 120 min shaking at 4° C. with Ysi WGA beads (250 μg/well) in 50 mM Tris-HCl (pH 7.4) followed by centrifugation at 1500 rpm for 5 minutes and resuspension in 50 mM Tris-HCl (pH 7.4). The membrane/bead mixture (15 μg membrane/250 μg beads well) was incubated for 90 minutes shaking at room temperature with 6.5 nM [2,5-^3H] Histamine dihydrochloride (30-60 Ci/mmol) in 50 mM Tris-HCl (pH 7.4), with or without competing H4 ligands. Non-specific binding was defined with 10 μM JNJ7777120. Bound radiolabel was determined using scintillation counting techniques after 90 minutes.

histamine H4 receptor [2] = biological target: T1, histamine H4 receptor; experiment: H4 binding, method 1 ([3H]-histamine filtration binding on CHO cell membranes); settings: for Ki: H4 binding, method 1, Ki calculated from IC50 (Cheng-Prussoff); for Method 1, activity at top dose (10 μM): top dose 10 μM
Procedure, shortened: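 Membranes from CHO cells expressing human H4 receptor (20-35 μg/well) incubated 90 min at room temperature with 3 nM [3H]-histamine in 50 mM Tris-HCl pH 7.4, ± competitor. Bound label separated by filtration on PEI-soaked GF/B filters and counted by scintillation; non-specific binding with 10 μM JNJ7777120.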

Structure (SMILES)	Ki (histamine H4 receptor [1]; read-out: Method 2 (Ki (nM))) [nM]	Ki (histamine H4 receptor [2]) [nM]	other results
CNC1CN(c2cc(NCc3cccc(F)c3)ncn2)C1 [Example 45, (3-Fluoro-benzyl)-[6-(3-methylamino-azetidin-1-yl)-pyrimidin-4-yl]-amine]	420	–	–
CC(C)(C)CCNc1cc(N2CC(N)C2)ncn1 [Example 118, 6-(3-Aminoazetidin-1-yl)-N-(3,3-dimethylbutyl)pyrimidin-4-amine]	1090	–	–
CCNc1cc(N2C[C@H]3CCCN[C@H]3C2)nc(N)n1 (racemic) [Example 26, N^4-Ethyl-6-[(4aR*,7aR*)-octahydro-6H-pyrrolo[3,4-b]pyridin-6-yl]pyrimidine-2,4-diamine]	–	–	Ki (histamine H4 receptor [1]; Method 2 (Ki (nM))): 30 nM
CNC1CN(c2cc(NCc3cccc(C(F)(F)F)c3)nc(N)n2)C1 [Example 80, 6-[3-(Methylamino)azetidin-1-yl]-N^4-[3-(trifluoromethyl)benzyl]pyrimidine-2,4-diamine]	103	–	–
CNC1CN(c2cc(N3CCCCC3)ncn2)C1 [Example 56, N-Methyl-1-(6-piperidin-1-ylpyrimidin-4-yl)azetidin-3-amine]	1590	–	–
CCNc1cc(N2C[C@H]3CN(C)C[C@H]3C2)nc(N)n1 [Example 36, N^4-Ethyl-6-[(3aR*,6aS*)-5-methylhexahydro-pyrrolo[3,4-c]pyrrol-2(1H)-yl]pyrimidine-2,4-diamine]	1620	–	–
CN1C[C@@H]2CN(c3cc(NCc4cccc(F)c4)nc(N)n3)C[C@@H]2C1 [Example 92, N^4-(3-Fluorobenzyl)-6-[(3aR*,6aS*)-5-methylhexahydropyrrolo [3,4-c]pyrrol-2(1H)-yl]pyrimidine-2,4-diamine]	1350	–	–
CC(C)CNc1cc(N2C[C@H]3CN(C)C[C@H]3C2)nc(N)n1 [Example 37, N^4-Isobutyl-6-[(3aR*,6aS*)-5-methylhexahydro-pyrrolo[3,4-c]pyrrol-2(1H)-yl]pyrimidine-2,4-diamine]	181	–	–
CN1CCN(c2cc(NC[C@H]3CCCO3)ncn2)CC1 [Example 113, 6-(4-Methylpiperazin-1-yl)-N-[(2R)-tetrahydrofuran-2-ylmethyl]pyrimidin-4-amine]	1480	–	–
CNC1CN(c2cc(NCc3ccccc3)ncn2)C1 [Example 51, N-Benzyl-6-[3-(methylamino)azetidin-1-yl]pyrimidin-4-amine]	161	–	–
CNc1cc(N2C[C@H]3CN(C)C[C@H]3C2)nc(N)n1 [Example 35, N^4-Methyl-6-[(3aR*,6aS*)-5-methylhexahydro-pyrrolo[3,4-c]pyrrol-2(1H)-yl]pyrimidine-2,4-diamine]	662	–	–
CN1CCN(c2cc(NCc3cccc(F)c3)nc(N)n2)CC1 [Example 91, N^4-(3-Fluorobenzyl)-6-(4-methylpiperazin-1-yl)pyrimidine-2,4-diamine]	386	–	–
CN1C[C@@H]2CN(c3cc(NCC4CC4)nc(N)n3)C[C@@H]2C1 [Example 38, N^4-(Cyclopropylmethyl)-6-[(3aR*,6aS*)-5-methylhexahydro-pyrrolo[3,4-c]pyrrol-2(1H)-yl]pyrimidine-2,4-diamine]	128	–	–
CN1CCN(c2cc(N3CCOCC3)ncn2)CC1 [Example 293, 4-[6-(4-Methylpiperazin-1-yl)pyrimidin-4-yl]morpholine]	–	3040	–
CN[C@@H]1CCN(c2cc(NC3CC3)ncn2)C1 [Example 203, N-Cyclopropyl-6-[(3R)-3-(methylamino)pyrrolidin-1-yl]pyrimidin-4-amine]	–	37.9	–
CCCNc1cc(N2CCN[C@@H](C)C2)ncn1 [Example 258, 6-[(3S)-3-Methylpiperazin-1-yl]-N-propylpyrimidin-4-amine]	–	509	–
Nc1nc(NC2CCC2)cc(N2C[C@H]3CCCN[C@H]3C2)n1 [Example 230, N^4-Cyclobutyl-6-[(4aR,7aR)-octahydro-6H-pyrrolo[3,4-b]pyridin-6-yl]pyrimidine-2,4-diamine]	–	127	–
c1nc(NCC2CC2)cc(N2CCN(C3CCCCC3)CC2)n1 [Example 305, 6-(4-Cyclohexylpiperazin-1-yl)-N-(cyclopropylmethyl)pyrimidin-4-amine]	–	–	Method 1, activity at top dose (10 μM) (histamine H4 receptor [2]): No activity at top
CC(C)Nc1cc(N2CCCN(C)CC2)nc(N)n1 [Example 198, N^4-isoPropyl-6-(4-methyl-1,4-diazepan-1-yl)pyrimidine-2,4-diamine]	–	33.6	–
CC(C)Nc1cc(N2CCC3NCCC3C2)nc(N)n1 (centres unmarked) [Example 231, N^4-Isopropyl-6-(octahydro-5H-pyrrolo[3,2-c]pyridin-5-yl)pyrimidine-2,4-diamine]	–	131	–
c1nc(NCC2CC2)cc(N2CCN(C3CNC3)CC2)n1 [Example 308, 6-(4-Azetidin-3-ylpiperazin-1-yl)-N-(cyclopropylmethyl)pyrimidin-4-amine]	–	–	Method 1, activity at top dose (10 μM) (histamine H4 receptor [2]): No activity at top
CCCNc1cc(N2CCNCC2)nc(N)n1 [Example 163, 6-Piperazin-1-yl-N^4-propylpyrimidine-2,4-diamine]	–	3.78	–
CNC1CN(c2cc(N3CCOCC3)nc(N)n2)C1 [Example 268, 4-[3-(Methylamino)azetidin-1-yl]-6-morpholin-4-ylpyrimidin-2-amine]	–	–	inhibition at 10 µM (histamine H4 receptor [2]; 1.5 h): 16%
CC(C)(C)CNc1cc(N2CC(N3CCCC3)C2)ncn1 [Example 192, N-(2,2-Dimethylpropyl)-6-(3-pyrrolidin-1-ylazetidin-1-yl)pyrimidin-4-amine]	–	28.7	–
Nc1nc(NCC2CC2)cc(N2CC(N3CCOCC3)C2)n1 [Example 322, N^4-(Cyclopropylmethyl)-6-(3-morpholin-4-ylazetidin-1-yl)pyrimidine-2,4-diamine]	–	–	inhibition at 20 µM (histamine H4 receptor [2]; 1.5 h): 57%

Further lines, with some results ahead:

Ki (histamine H4 receptor [1]; read-out: Method 2 (Ki (nM))) [nM]	Ki (histamine H4 receptor [2]) [nM]	Structure (SMILES)	other results
6.42	–	CNC1CN(c2cc(NCc3ccc(F)cc3)nc(N)n2)C1 [Example 90, N^4-(4-Fluorobenzyl)-6-[3-(methylamino)azetidin-1-yl]pyrimidine-2,4-diamine]	–
11.2	–	CNC1CN(c2cc(NCc3ccccc3)nc(N)n2)C1 [Example 79, N^4-Benzyl-6-[3-(methylamino)azetidin-1-yl]pyrimidine-2,4-diamine]	–
8.42	–	CC(C)CCNc1cc(N2CCN(C)CC2)nc(N)n1 [Example 108, N^4-(3-Methylbutyl)-6-(4-methylpiperazin-1-yl)pyrimidine-2,4-diamine]	–
11.9	–	CNC1CN(c2cc(NC3CC3)nc(N)n2)C1 [Example 72, N^4-Cyclopropyl-6-[3-(methylamino)azetidin-1-yl]pyrimidine-2,4-diamine]	–
2690	–	CC(C)(C)CCNc1cc(N2CC[C@H](N3CCCC3)C2)nc(N)n1 [Example 332, 6-[(3′S)-1,3′-Bipyrrolidin-1′-yl]-N^4-(3,3-dimethylbutyl)pyrimidine-2,4-diamine]	–
256	–	C[C@@H]1CN(c2cc(NCCC(C)(C)C)nc(N)n2)CCN1 [Example 93, N^4-(3,3-Dimethylbutyl)-6-[(3R)-3-methylpiperazin-1-yl]pyrimidine-2,4-diamine]	–
–	35	CC(C)(C)CNc1cc(N2CCC(N)CC2)nc(N)n1 [Example 201, 6-(4-Aminopiperidin-1-yl)-N^4-(2,2-dimethylpropyl)pyrimidine-2,4-diamine]	–
–	301	CC1(N)CCN(c2cc(NCC3CC3)nc(N)n2)C1 (centres unmarked) [Example 246, 6-(3-Amino-3-methylpyrrolidin-1-yl)-N^4-(cyclopropylmethyl)pyrimidine-2,4-diamine]	–
–	2.65	CNC1CN(c2cc(N[C@H](C)C(C)C)nc(N)n2)C1 [Example 160, N^4-[(1R)-1,2-Dimethylpropyl]-6-[3-(methylamino)azetidin-1-yl]pyrimidine-2,4-diamine]	–
–	70.6	CC(C)CNc1cc(N2CC[C@@H](N)C2)nc(N)n1 [Example 216, 6-[(3R)-3-Aminopyrrolidin-1-yl]-N^4-isobutylpyrimidine-2,4-diamine]	–
–	343	CN[C@@H]1CCN(c2cc(NCc3cccc(F)c3)nc(N)n2)C1 [Example 249, N^4-(3-Fluorobenzyl)-6-[(3R)-3-(methylamino)pyrrolidin-1-yl]pyrimidine-2,4-diamine]	–
–	0.805	CCC(C)CNc1cc(N2CC(NC)C2)nc(N)n1 (centres unmarked) [Example 128, 6-[3-(Methylamino)azetidin-1-yl]-N^4-(2-methylbutyl)pyrimidine-2,4-diamine]	–
–	50	NCCNc1cc(NCC2CC2)nc(N)n1 [Example 212, N^4-(2-Aminoethyl)-N^6-(cyclopropylmethyl)pyrimidine-2,4,6-triamine]	–
–	380	CN[C@@H]1CCN(c2cc(NCc3ccccc3F)nc(N)n2)C1 [Example 253, N^4-(2-Fluorobenzyl)-6-[(3R)-3-(methylamino)pyrrolidin-1-yl]pyrimidine-2,4-diamine]	–
–	2590	CC(C)(C)CCNc1cc(N2CCC(N)C2)ncn1 (centres unmarked) [Example 292, 6-(3-Aminopyrrolidin-1-yl)-N-(3,3-dimethylbutyl)pyrimidin-4-amine]	–
–	708	CCCNc1cc(N2CCC(N)CC2)nc(N)n1 [Example 266, 6-(4-Aminopiperidin-1-yl)-N^4-propylpyrimidine-2,4-diamine]	–
